Measurements as given in patent US10329295B2, “Pyrrolotriazine inhibitors of IRAK4 activity” (MERCK SHARP & DOHME CORP., priority 2015, dated 2019).
Counter-ions that a name gives are not always drawn.

Each compound was assayed against GST tagged IRAK4 (Homo sapiens (Human), UniProt Q9NWZ3) (assay: IRAK4 Kinase Assay (IMAP fluorescence polarization)). Conditions: 0.5 nM GST tagged IRAK4, 100 μM ATP, 30 minutes at 25° C.
Assay type: biochemical
Procedure, shortened: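 Reactions contained 0.5 nM GST-IRAK4, 100 nM fluorescent peptide substrate and 100 μM ATP in 10 mM Tris-HCl pH 7.2 with 1 mM MgCl2, and were started with ATP. After 30 minutes at 25° C they were stopped with IMAP reagent. Substrate phosphorylation was read as the change in fluorescence polarization.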

Chain of GST tagged IRAK4 (Q9NWZ3 whole entry): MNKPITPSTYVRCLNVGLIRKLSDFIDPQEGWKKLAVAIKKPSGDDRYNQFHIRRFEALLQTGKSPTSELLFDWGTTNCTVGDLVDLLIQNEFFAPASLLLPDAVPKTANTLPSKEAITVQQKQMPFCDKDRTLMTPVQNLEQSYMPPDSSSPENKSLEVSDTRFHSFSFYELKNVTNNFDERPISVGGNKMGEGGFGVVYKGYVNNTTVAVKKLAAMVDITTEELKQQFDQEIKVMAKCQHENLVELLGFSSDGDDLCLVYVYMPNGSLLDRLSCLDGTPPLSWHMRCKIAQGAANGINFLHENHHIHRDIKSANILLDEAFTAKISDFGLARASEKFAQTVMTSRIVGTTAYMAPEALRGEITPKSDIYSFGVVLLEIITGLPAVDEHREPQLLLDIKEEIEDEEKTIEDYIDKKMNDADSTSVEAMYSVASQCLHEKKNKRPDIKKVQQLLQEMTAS

Row | SMILES | IC50 [nM]
1 | O=C(Nc1cscc1Br)c1ccc2cnc(N3CC4CCC3CN4)nn12 (centres unmarked) [Example 24, N-(4-bromothiophen-3-yl)-2-(2,5-diazabicyclo[2.2.2]oct-2-yl)pyrrolo[2,1-f][1,2,4]triazine-7-carboxamide trifluoroacetate] | 680
2 | N[C@@H]1[C@H](Nc2ncc3ccc(C(=O)Nc4ccccc4C(F)(F)F)n3n2)CCCC1(F)F [Example 137, 2-{[(1R,2R)-2-amino-3,3-difluorocyclohexyl]amino}-N-[2-(trifluoromethyl)phenyl]-pyrrolo[2,1-f][1,2,4]triazine-7-carboxamide trifluoroacetate] | 2190
3 | Cn1cc(NC(=O)c2ccc3cnc(N4C5CCC4CNC5)nn23)c(C(F)F)n1 [Example 121, 2-(3,8-diazabicyclo[3.2.1]oct-8-yl)-N-[3-(difluoromethyl)-1-methyl-1H-pyrazol-4-yl]pyrrolo[2,1-f][1,2,4]triazine-7-carboxamide trifluoroacetate] | 0.5
4 | Cn1cc(NC(=O)c2ccc3cnc(N4C[C@H]5CN[C@H](C5)C4)nn23)c(C(F)(F)F)n1 (single isomer, unassigned) [Example 101, 2-[(1S,5S)- or (1R,5R)-3,6-diazabicyclo[3.2.1]oct-3-yl]-N-[1-methyl-3-(trifluoromethyl)-1H-pyrazol-4-yl]pyrrolo[2,1-f][1,2,4]triazine-7-carboxamide] | 277
5 | O=C(Nc1ccccc1C(F)(F)F)c1ccc2cnc(N3CCCNCC3)nn12 [Example 28, 2-(1,4-diazepan-1-yl)-N-[2-(trifluoromethyl)phenyl]-pyrrolo[2,1-f][1,2,4]triazine-7-carboxamide trifluoroacetate] | 3980
6 | N#Cc1ccccc1NC(=O)c1ccc2cnc(N3CCCNCC3)nn12 [Example 59, N-(2-cyanophenyl)-2-(1,4-diazepan-1-yl)pyrrolo[2,1-f][1,2,4]triazine-7-carboxamide trifluoroacetate] | 4270
7 | O=C(Nc1cscc1Cl)c1ccc2cnc(N3C[C@H]4CC[C@@H]3CN4)nn12 (single isomer, unassigned) [Example 108, N-(4-chlorothiophen-3-yl)-2-[(1S,4S)- or (1R,4R)-2,5-diazabicyclo[2.2.2]oct-2-yl]pyrrolo[2,1-f][1,2,4]triazine-7-carboxamide trifluoroacetate] | 198
8 | O=C(Nc1ccsc1Br)c1ccc2cnc(N3CCCNCC3)nn12 [Example 37, N-(2-bromothiophen-3-yl)-2-(1,4-diazepan-1-yl)pyrrolo[2,1-f][1,2,4]triazine-7-carboxamide trifluoroacetate] | 1670
9 | N[C@@H]1[C@H](Nc2ncc3ccc(C(=O)Nc4cscc4C(F)F)n3n2)CCCC1(F)F [Example 93, 2-{[(1R,2R)-2-amino-3,3-difluorocyclohexyl]amino}-N-[4-(difluoromethyl)thiophen-3-yl]pyrrolo[2,1-f][1,2,4]triazine-7-carboxamide trifluoroacetate] | 298
10 | O=C(Nc1ccccc1Cl)c1ccc2cnc(N3C[C@H]4CC[C@@H]3CN4)nn12 (single isomer, unassigned) [Example 55, N-(2-chlorophenyl)-2-[(1S,4S)- or (1R,4R)-2,5-diazabicyclo[2.2.2]oct-2-yl]pyrrolo[2,1-f][1,2,4]triazine-7-carboxamide trifluoroacetate] | 557
11 | O=C(Nc1ccccc1C(F)F)c1ccc2cnc(N3C[C@H]4CC[C@@H]3CN4)nn12 (single isomer, unassigned) [Example 62, 2-[(1S,4S)- or (1R,4R)-2,5-diazabicyclo[2.2.2]oct-2-yl]-N-[2-(difluoromethyl)phenyl]-pyrrolo[2,1-f][1,2,4]triazine-7-carboxamide trifluoroacetate] | 944
12 | COCCn1cc(NC(=O)c2ccc3cnc(N[C@@H]4CCCC[C@@H]4N)nn23)cn1 [Example 168, 2-{[(1R,2S)-2-aminocyclohexyl]amino}-N-[1-(2-methoxyethyl)-1H-pyrazol-4-yl]pyrrolo[2,1-f][1,2,4]triazine-7-carboxamide trifluoroacetate] | 301

Other lines, results leading:

Row | IC50 [nM] | SMILES
13 | 3 | Cn1cc(NC(=O)c2ccc3cnc(N[C@@H]4CC(F)(F)CC[C@@H]4N)nn23)c(C(F)F)n1 (single isomer, unassigned) [Example 140, 2-{[(1S,2R)- or (1R,2S)-2-amino-5,5-difluorocyclohexyl]amino}-N-[3-(difluoromethyl)-1-methyl-1H-pyrazol-4-yl]pyrrolo[2,1-f][1,2,4]triazine-7-carboxamide]
14 | 3 | Cn1cc(NC(=O)c2ccc3cnc(N4CCNCC4)nn23)c(C(F)F)n1 [Example 11, N-[3-(difluoromethyl)-1-methyl-1H-pyrazol-4-yl]-2-piperazin-1-ylpyrrolo[2,1-f][1,2,4]triazine-7-carboxamide trifluoroacetate]
15 | 1 | Cn1cc(NC(=O)c2ccc3cnc(N[C@@H]4CCCC[C@@H]4N)nn23)c(Cl)n1 [Example 25, 2-{[(1R,2S)-2-aminocyclohexyl]amino}-N-(3-chloro-1-methyl-1H-pyrazol-4-yl)pyrrolo[2,1-f][1,2,4]triazine-7-carboxamide trifluoroacetate]
16 | 20 | Cn1cc(NC(=O)c2ccc3cnc(N[C@@H]4CCCC[C@@H]4O)nn23)c(C#N)n1 [Example 122, N-(3-cyano-1-methyl-1H-pyrazol-4-yl)-2-{[(1R,2S)-2-hydroxycyclohexyl]amino}-pyrrolo[2,1-f][1,2,4]triazine-7-carboxamide trifluoroacetate]
17 | 0.8 | Cn1cc(NC(=O)c2ccc3cnc(N[C@@H]4CCCNC4)nn23)c(C#N)n1 [Example 124, N-(3-cyano-1-methyl-1H-pyrazol-4-yl)-2-[(3R)-piperidin-3-ylamino]pyrrolo[2,1-f][1,2,4]triazine-7-carboxamide trifluoroacetate]
18 | 86 | Cn1cc(NC(=O)c2ccc3cnc(N[C@@H]4CCCC(F)(F)[C@@H]4N)nn23)c(C#N)n1 [Example 98, 2-{[(1R,2R)-2-amino-3,3-difluorocyclohexyl]amino}-N-(3-cyano-1-methyl-1H-pyrazol-4-yl)pyrrolo[2,1-f][1,2,4]triazine-7-carboxamide trifluoroacetate]
19 | 7 | N#Cc1sccc1NC(=O)c1ccc2cnc(N3CCC[C@H](N)C3)nn12 [Example 152, 2-[(3S)-3-aminopiperidin-1-yl]-N-(2-cyanothiophen-3-yl)pyrrolo[2,1-f][1,2,4]triazine-7-carboxamide trifluoroacetate]
20 | 61 | Cn1cc(NC(=O)c2ccc3cnc(N4CCCNCC4)nn23)c(Cl)n1 [Example 26, N-(3-chloro-1-methyl-1H-pyrazol-4-yl)-2-(1,4-diazepan-1-yl)pyrrolo[2,1-f][1,2,4]triazine-7-carboxamide trifluoroacetate]
21 | 11 | N#Cc1ccccc1NC(=O)c1ccc2cnc(N[C@@H]3CCCC[C@@H]3N)nn12 [Example 50, 2-{[(1R,2S)-2-aminocyclohexyl]amino}-N-(2-cyanophenyl)pyrrolo[2,1-f][1,2,4]triazine-7-carboxamide trifluoroacetate]
22 | 11 | N[C@H]1CCCC[C@H]1Nc1ncc2ccc(C(=O)Nc3ccccc3Br)n2n1 [Example 32, 2-{[(1R,2S)-2-aminocyclohexyl]amino}-N-(2-bromophenyl)pyrrolo[2,1-f][1,2,4]triazine-7-carboxamide trifluoroacetate]
23 | 0.5 | Cn1cc(NC(=O)c2ccc3cnc(N[C@H]4CNC[C@@H](F)C4)nn23)c(C(F)F)n1 [Example 159, N-[3-(difluoromethyl)-1-methyl-1H-pyrazol-4-yl]-2-{[(3R,5S)-5-fluoropiperidin-3-yl]amino}pyrrolo[2,1-f][1,2,4]triazine-7-carboxamide]
24 | 26 | N#Cc1ccccc1NC(=O)c1ccc2cnc(N[C@@H]3CCCNC3)nn12 [Example 52, N-(2-cyanophenyl)-2-[(3R)-piperidin-3-ylamino]pyrrolo[2,1-f][1,2,4]triazine-7-carboxamide trifluoroacetate]
25 | 0.7 | Cn1cc(NC(=O)c2ccc3cnc(N[C@@H]4CCCCNC4)nn23)c(C(F)F)n1 (single isomer, unassigned) [Example 90, 2-[(3S)- or (3R)-azepan-3-ylamino]-N-[3-(difluoromethyl)-1-methyl-1H-pyrazol-4-yl]pyrrolo[2,1-f][1,2,4]triazine-7-carboxamide trifluoroacetate]
26 | 80 | Cn1cc(NC(=O)c2ccc3cnc(N4C[C@H]5CC[C@@H]4CN5)nn23)c(Cl)n1 (single isomer, unassigned) [Example 45, N-(3-chloro-1-methyl-1H-pyrazol-4-yl)-2-[(1S,4S)- or (1R,4R)-2,5-diazabicyclo[2.2.2]oct-2-yl]pyrrolo[2,1-f][1,2,4]triazine-7-carboxamide trifluoroacetate]
27 | 0.8 | Cn1cc(NC(=O)c2ccc3cnc(N4C[C@H](N)C[C@@H](F)C4)nn23)c(C(F)(F)F)n1 [Example 149, 2-[(3R,5R)-3-amino-5-fluoropiperidin-1-yl]-N-[1-methyl-3-(trifluoromethyl)-1H-pyrazol-4-yl]pyrrolo[2,1-f][1,2,4]triazine-7-carboxamide trifluoroacetate]
28 | 85 | Cn1cc(NC(=O)c2ccc3cnc(N4C[C@@H]5CN[C@@H](C5)C4)nn23)c(C#N)n1 (single isomer, unassigned) [Example 113, N-(3-cyano-1-methyl-1H-pyrazol-4-yl)-2-[(1S,5S)- or (1R,5R)-3,6-diazabicyclo[3.2.1]oct-3-yl]pyrrolo[2,1-f][1,2,4]triazine-7-carboxamide]
29 | 3 | N[C@H]1CCCC[C@H]1Nc1ncc2ccc(C(=O)Nc3ccsc3Cl)n2n1 [Example 30, 2-{[(1R,2S)-2-aminocyclohexyl]amino}-N-(2-chlorothiophen-3-yl)pyrrolo[2,1-f][1,2,4]triazine-7-carboxamide trifluoroacetate]
